Laboratory results reported in ChEMBL document CHEMBL1140134, “Structure-guided design of N-phenyl tertiary amines as transrepression-selective liver X receptor modulators with anti-inflammatory activity” (J Med Chem, 2008).

Tests used:
Huh-7 = experiment: Lipogenic activity against human HuH7 cells assessed as triglyceride accumulation at 10 uM after 4 days relative to N-(4-(1,1,1,3,3,3-hexafluoro-2-hydroxypropan-2-yl)phenyl)-N-(2,2,2-trifluoroethyl)benzenesulfonamide; assay type: functional
[1] = target: T1, Oxysterols receptor LXR-alpha (Homo sapiens, UniProt Q13133); experiment: Displacement of [N-methyl-3H]GW0438 from human biotinylated LXRalpha ligand binding domain
T1 sequence (Q13133 whole entry): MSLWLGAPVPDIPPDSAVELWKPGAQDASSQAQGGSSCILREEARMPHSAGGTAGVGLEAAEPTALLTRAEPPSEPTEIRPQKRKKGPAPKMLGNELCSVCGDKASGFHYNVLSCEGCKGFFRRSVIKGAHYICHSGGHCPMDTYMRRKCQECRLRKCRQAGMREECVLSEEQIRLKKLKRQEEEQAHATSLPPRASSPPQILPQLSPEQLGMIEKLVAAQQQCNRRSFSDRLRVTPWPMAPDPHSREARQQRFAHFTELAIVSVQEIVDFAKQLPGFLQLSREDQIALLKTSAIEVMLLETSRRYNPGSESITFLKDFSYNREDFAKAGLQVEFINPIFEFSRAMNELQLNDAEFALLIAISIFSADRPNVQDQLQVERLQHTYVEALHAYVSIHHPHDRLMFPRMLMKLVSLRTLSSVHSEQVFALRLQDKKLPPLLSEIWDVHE

THP-1 [2] = experiment: Antiinflammatory activity against human THP1 cells assessed as inhibition of LPS-stimulated IL6 production by ELISA relative to N-(4-(1,1,1,3,3,3-hexafluoro-2-hydroxypropan-2-yl)phenyl)-N-(2,2,2-trifluoroethyl)benzenesulfonamide; assay type: functional
THP-1 [3] = experiment: Antiinflammatory activity against human THP1 cells assessed as inhibition of LPS-stimulated IL6 production after 6 hrs by ELISA; assay type: functional, cell-based; conditions: THP-1, 6 h
[4] = target: Oxysterols receptor LXR-beta (Homo sapiens, UniProt P55055)
Oxysterols receptor LXR-beta, sequence (P55055 whole entry): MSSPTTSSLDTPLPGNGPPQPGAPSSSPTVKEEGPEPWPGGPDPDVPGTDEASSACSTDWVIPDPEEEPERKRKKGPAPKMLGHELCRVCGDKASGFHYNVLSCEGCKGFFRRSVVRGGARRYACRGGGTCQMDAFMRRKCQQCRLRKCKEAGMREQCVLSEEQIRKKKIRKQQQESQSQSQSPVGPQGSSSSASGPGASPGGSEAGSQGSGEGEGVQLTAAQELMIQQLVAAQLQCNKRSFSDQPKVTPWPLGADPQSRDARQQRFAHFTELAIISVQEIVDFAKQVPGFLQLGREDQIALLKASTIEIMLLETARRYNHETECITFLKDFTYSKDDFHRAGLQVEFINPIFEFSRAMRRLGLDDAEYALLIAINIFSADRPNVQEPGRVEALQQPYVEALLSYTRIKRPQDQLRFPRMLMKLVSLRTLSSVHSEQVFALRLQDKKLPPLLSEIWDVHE

[5] = Metabolic stability in human HuH7 cells at 1 uM after 24 hrs; assay type: ADME, cell-based, Huh-7; conditions: read-out: Stability
[6] = target: T2, Nuclear receptor subfamily 1 group I member 2 (Homo sapiens, UniProt O75469); experiment: Inhibition of human PXR
T2 sequence (O75469 whole entry): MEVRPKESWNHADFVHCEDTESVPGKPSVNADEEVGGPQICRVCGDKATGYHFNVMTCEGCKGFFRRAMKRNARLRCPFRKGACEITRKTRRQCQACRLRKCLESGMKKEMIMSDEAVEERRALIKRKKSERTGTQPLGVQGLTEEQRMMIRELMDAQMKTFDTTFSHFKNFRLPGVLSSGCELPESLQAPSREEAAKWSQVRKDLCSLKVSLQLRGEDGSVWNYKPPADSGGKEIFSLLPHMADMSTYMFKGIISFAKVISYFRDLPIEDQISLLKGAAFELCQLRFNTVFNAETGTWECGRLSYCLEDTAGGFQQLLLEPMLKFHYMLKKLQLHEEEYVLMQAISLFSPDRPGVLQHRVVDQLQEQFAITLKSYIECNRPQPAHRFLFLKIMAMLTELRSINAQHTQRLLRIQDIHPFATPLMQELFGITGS

[7] = target: T1, Oxysterols receptor LXR-alpha; experiment: Activation of LXRalpha by GAL4 reporter gene assay

Row | SMILES | Activity (Huh-7) | IC50 [1] | Activity (THP-1 [2]) | IC50 (THP-1 [3]) | IC50 [4] | remaining at 24 h, 1 µM [5] | EC50 [6] | EC50 [7]
1 | OC(c1ccc(N(Cc2ccccc2)Cc2ccccc2)cc1)(C(F)(F)F)C(F)(F)F | >0.5 | 315 nM | – | – | – | – | – | –
2 | CCCCN(Cc1cc(Cl)c(OC)c(OC)c1)c1ccc(C(O)(C(F)(F)F)C(F)(F)F)cc1 | 0.4 | 165 nM | 1 | 15 nM | – | – | – | –
3 | CCCCN(Cc1cc(Cl)c(OC)c(Cl)c1)c1ccc(C(O)(C(F)(F)F)C(F)(F)F)cc1 | 0.8 | 170 nM | 1 | 15 nM | – | – | – | –
4 | O=C(O)Cc1cccc(OCCCN(Cc2cccc(C(F)(F)F)c2Cl)CC(c2ccccc2)c2ccccc2)c1 | 1 | 235 nM | 1 | 20 nM | 30 nM | – | – | –
5 | CCCCN(Cc1cc(Cl)cc(Cl)c1O)c1ccc(C(O)(C(F)(F)F)C(F)(F)F)cc1 | – | 890 nM | <0.5 | 1290 nM | – | – | – | –
6 | CCCCN(Cc1ccc(O)cc1)c1ccc(C(O)(C(F)(F)F)C(F)(F)F)cc1 | – | 955 nM | – | – | – | – | – | –
7 | CCCCN(Cc1cccc(OCCO)c1)c1ccc(C(O)(C(F)(F)F)C(F)(F)F)cc1 | 1.8 | 115 nM | 1 | 5 nM | – | – | – | –
8 | CCCCN(Cc1ccccc1O)c1ccc(C(O)(C(F)(F)F)C(F)(F)F)cc1 | 0.6 | 180 nM | 1 | 35 nM | – | – | – | –
9 | CCCCN(Cc1cc(OC(F)(F)F)ccc1O)c1ccc(C(O)(C(F)(F)F)C(F)(F)F)cc1 | 1 | 190 nM | – | – | – | – | – | –
10 | CN(Cc1ccccc1)c1ccc(C(O)(C(F)(F)F)C(F)(F)F)cc1 | >0.5 | 310 nM | – | – | – | – | – | –
11 | O=S(=O)(c1ccccc1)N(CC(F)(F)F)c1ccc(C(O)(C(F)(F)F)C(F)(F)F)cc1 [T091317] | 1 | – | 1 | 100 nM | – | 65% | – | –
12 | CCCCN(Cc1cccc(O)c1)c1ccc(C(O)(C(F)(F)F)C(F)(F)F)cc1 | 0.5 | 160 nM | 1 | 35 nM | – | – | – | –
13 | CCCCN(Cc1cccc(F)c1O)c1ccc(C(O)(C(F)(F)F)C(F)(F)F)cc1 | 1.9 | 615 nM | 1 | 60 nM | – | – | – | –
14 | CCCCN(Cc1ccncc1)c1ccc(C(O)(C(F)(F)F)C(F)(F)F)cc1 | 1.1 | 90 nM | 1 | 20 nM | – | – | – | –
15 | CCCCN(Cc1ccccn1)c1ccc(C(O)(C(F)(F)F)C(F)(F)F)cc1 | 1.1 | 120 nM | 1 | 20 nM | – | – | – | –
16 | CCCCN(Cc1cc(Cl)ccc1O)c1ccc(C(O)(C(F)(F)F)C(F)(F)F)cc1 | 1 | 220 nM | 1 | 55 nM | – | – | – | –
17 | CCCCN(Cc1ccccc1)c1ccc(C(O)(C(F)(F)F)C(F)(F)F)cc1 | 0.8 | 170 nM | 1 | 25 nM | – | – | – | –
18 | CCCCN(Cc1ccc(O)c(Cl)c1)c1ccc(C(O)(C(F)(F)F)C(F)(F)F)cc1 | 0.6 | 560 nM | 1 | 25 nM | – | – | – | –
19 | CCCCN(Cc1cc(Cl)c(O)c(Cl)c1)c1ccc(C(O)(C(F)(F)F)C(F)(F)F)cc1 | <0.1 | 180 nM | 1 | 15 nM | – | 40% | 250 nM | 3000 nM
20 | CCCCN(Cc1cc(Cl)c(O)c(OC)c1)c1ccc(C(O)(C(F)(F)F)C(F)(F)F)cc1 | <0.2 | 775 nM | 1 | 10 nM | – | – | – | –
21 | CCCCN(Cc1cc(Cl)cc(Cl)c1)c1ccc(C(O)(C(F)(F)F)C(F)(F)F)cc1 | 0.7 | 195 nM | 1 | 10 nM | – | – | – | –
